# Source: US20210127671A1, “HYPERSENSITIVE RESPONSE ELICITOR PEPTIDES AND USE THEREOF” (priority 2015, published 2021)
# Peptide text beside a SMILES is read from it.
# How the values were obtained:
# [1] = Stability against chemical degradation in water or pH buffers at 50° C. (HPLC); settings: for stability after 14 days: 50 mM EDTA, pH 8 (FIG. 24); for stability after 14 days / precipitation during stability test: 50° C.; for precipitation during stability test: 0.2% AI, 0.25% Proxel GXL, 50 mM buffers; for solution stability (in words): aqueous solution; for % remaining after 14 days incubation: 50 mM TES, pH 8.0, 50° C.
# Protocol: Briefly, the stability and resistance to chemical degradation of peptides can be assessed as follows using peptide samples having an initial purity of at least about 80%, at least about 82%, at least about 84%, at least about 86%, at least about 88%, at least about 90%, at least about 92%, at least about 94%, at least about 96%, or at least about 98%. For water stability, the peptide is dissolved directly in de-ionized water. For chemical degradation tests, the peptide is dissolved in an aqueous solution containing 50 mM pH buffer and 0.25% Proxel GXL. Exemplary pH buffers include, without limitation: (i) Citrate pH 5.6; (ii) MES pH 6.2; (iii) MOPS pH 6.5; (iv) imidazole pH 7.0; (v) Citrate pH 7.2; (vi) EDDS, pH 7.3; (vii) EDTA pH 8.0; (viii) sodium phosphate pH 8.0; or (ix) TES pH 8.0. Peptides are first dissolved in the aqueous solution at a concentration of 0.5 mg/ml. […] An initial sample of the peptide is removed, diluted 10× with water, and analyzed by reverse-phase HPLC. Briefly, 20 μl of the sample is injected into the solvent flow of an HPLC instrument and analyzed on a C18 HPLC column (YMC ProPack C18, YMC, Japan, or C18 Stablebond, Agilent Technologies, USA) using either a triethylamine phosphate in water/acetonitrile gradient or a 0.1% TFA in water/0.1% TFA in acetonitrile gradient to separate different peptide species. Eluting peptides are monitored by UV absorbance at 218 nm and quantified based on the area under the peak. The area under the peak for the initial peptide sample is treated as the standard for relative quantification in subsequent runs. At regular intervals (e.g., 1, 3, 7, 10, 14, 17, and 21 days), each peptide sample is surveyed and analyzed by HPLC as described above.
# Stability against chemical degradation was assessed in various pH buffers by creating 0.2% AI solutions of pure, chemically synthesized peptide in deionized water, 0.25% weight to volume of Proxel® GXL (biocide), and 50 millimolar (mM) of eight buffers (separately) as follows: MES pH 5.6, MOPS pH 6.5, Citrate pH 7.2, EDDS pH 7.3, EDTA pH 8, Phosphate pH 8, Imidazole pH 8, and TES pH 8.
# [2] = 0.2% AI in deionized water, 48 hours at room temperature
compound,measurement,setting,value
CC[C@H](C)[C@H](NC(=O)[C@@H](NC(=O)[C@H](CCC(N)=O)NC(=O)[C@H](CCCNC(=N)N)NC(=O)[C@H](CC(=O)O)NC(=O)[C@@H](NC(=O)[C@@H]1CCCN1C(=O)[C@H](CCC(N)=O)NC(=O)[C@@H](N)CCC(N)=O)[C@@H](C)CC)[C@@H](C)O)C(=O)N[C@@H](CCC(=O)O)C(=O)N[C@@H](CCC(N)=O)C(=O)N[C@@H](CCSC)C(=O)N[C@@H](C)C(=O)N[C@@H](CCC(N)=O)C(=O)N[C@@H](CC(C)C)C(=O)N[C@@H](CC(C)C)C(=O)N[C@@H](C)C(=O)N[C@@H](CCC(N)=O)C(=O)N[C@@H](CC(C)C)C(=O)N[C@@H](CC(C)C)C(=O)N[C@@H](CCCCN)C(=O)N[C@@H](CO)C(=O)N[C@@H](CC(C)C)C(=O)N[C@@H](CC(C)C)C(=O)O [Peptide P18-1] (H-QQPIDRQTIEQMAQLLAQLLKSLL-OH),stability after 14 days,[1],> 90%
CC[C@H](C)[C@H](N)C(=O)N[C@H](C(=O)N1CCC[C@H]1C(=O)N[C@@H](CC(=O)O)C(=O)NCC(=O)N[C@@H](CCC(N)=O)C(=O)NCC(=O)NCC(=O)NCC(=O)N[C@@H](CCC(N)=O)C(=O)N[C@H](C(=O)NCC(=O)N[C@@H](CC(=O)O)C(=O)N[C@@H](CC(N)=O)C(=O)N1CCC[C@H]1C(=O)N[C@@H](CC(C)C)C(=O)N[C@@H](CC(C)C)C(=O)N[C@@H](CCCCN)C(=O)N[C@@H](C)C(=O)N[C@@H](CC(C)C)C(=O)N[C@@H](CC(C)C)C(=O)N[C@@H](CCCCN)C(=O)N[C@@H](CC(C)C)C(=O)N[C@H](C(=O)N[C@@H](C)C(=O)O)[C@@H](C)CC)[C@@H](C)CC)[C@@H](C)O [Peptide P19-20L] (H-ITPDGQGGGQIGDNPLLKALLKLIA-OH; N-terminus and C-terminus assumed),stability compared with P19 (in words),"[1]; 50 mM citrate pH 7.2 or 50 mM TES, pH 8.0",modest increase in stability
CC[C@H](C)[C@H](NC(=O)[C@@H](NC(=O)[C@H](CCC(N)=O)NC(=O)[C@H](CCCNC(=N)N)NC(=O)[C@@H](N)CC(=O)O)[C@@H](C)O)C(=O)N[C@@H](CCC(=O)O)C(=O)N[C@@H](CCC(N)=O)C(=O)N[C@@H](CC(C)C)C(=O)N[C@@H](C)C(=O)N[C@@H](CCC(N)=O)C(=O)N[C@@H](CC(C)C)C(=O)N[C@@H](CC(C)C)C(=O)N[C@@H](C)C(=O)N[C@@H](CCC(N)=O)C(=O)N[C@@H](CC(C)C)C(=O)N[C@@H](CC(C)C)C(=O)N[C@@H](CCCCN)C(=O)N[C@@H](CO)C(=O)N[C@@H](CC(C)C)C(=O)N[C@@H](CC(C)C)C(=O)N[C@@H](CO)C(=O)N1CCC[C@H]1C(=O)O [Peptide P18-4] (H-DRQTIEQLAQLLAQLLKSLLSP-OH),stability after 14 days,[1],60%
"CC[C@H](C)[C@H](NC(=O)CNC(=O)[C@H](CCC(=O)O)NC(=O)[C@@H](N)CC(N)=O)C(=O)N[C@@H](CO)C(=O)N[C@@H](CCC(=O)O)C(=O)N[C@@H](CCCCN)C(=O)N[C@@H](CCC(=O)O)C(=O)N[C@@H](CC(C)C)C(=O)N[C@@H](CC(=O)O)C(=O)N[C@@H](CCC(=O)O)C(=O)N[C@@H](CC(C)C)C(=O)N[C@@H](CC(C)C)C(=O)N[C@H](C(=O)N[C@@H](CCC(=O)O)C(=O)N[C@@H](CC(C)C)C(=O)N[C@H](C(=O)N[C@@H](CCC(=O)O)C(=O)N[C@@H](C)C(=O)N[C@@H](CC(C)C)C(=O)N[C@@H](CC(C)C)C(=O)N[C@@H](CCC(N)=O)C(=O)N[C@@H](CCC(N)=O)C(=O)O)[C@@H](C)CC)[C@@H](C)O [P1-2E,8E,11E,15E,18E] (H-NEGISEKELDELLTELIEALLQQ-OH; N-terminus and C-terminus assumed)",solubility,[2],soluble
same,precipitation during stability test,[1],remained in solution
same,solution stability (in words),[1],improved solubility and stability when compared with P1
CC[C@H](C)[C@H](N)C(=O)N[C@H](C(=O)N1CCC[C@H]1C(=O)N[C@@H](CC(=O)O)C(=O)NCC(=O)N[C@@H](CCC(N)=O)C(=O)NCC(=O)NCC(=O)NCC(=O)N[C@@H](CCC(N)=O)C(=O)N[C@H](C(=O)NCC(=O)N[C@@H](CC(=O)O)C(=O)N[C@@H](CC(N)=O)C(=O)N1CCC[C@H]1C(=O)N[C@@H](CC(C)C)C(=O)N[C@@H](CC(C)C)C(=O)N[C@@H](CCCCN)C(=O)N[C@@H](C)C(=O)N[C@@H](CCSC)C(=O)N[C@@H](CC(C)C)C(=O)N[C@@H](CCCCN)C(=O)N[C@@H](CC(C)C)C(=O)N[C@H](C(=O)N[C@@H](C)C(=O)O)[C@@H](C)CC)[C@@H](C)CC)[C@@H](C)O [Peptide P19] (H-ITPDGQGGGQIGDNPLLKAMLKLIA-OH; N-terminus and C-terminus assumed),remaining at 336 h,[1]; buffer or solvent,52%
CC[C@H](C)[C@H](NC(=O)CNC(=O)[C@H](CCC(N)=O)NC(=O)[C@@H](N)CC(N)=O)C(=O)N[C@@H](CO)C(=O)N[C@@H](CCC(=O)O)C(=O)N[C@@H](CCCCN)C(=O)N[C@@H](CCC(N)=O)C(=O)N[C@@H](CC(C)C)C(=O)N[C@@H](CC(=O)O)C(=O)N[C@@H](CCC(N)=O)C(=O)N[C@@H](CC(C)C)C(=O)N[C@@H](CC(C)C)C(=O)N[C@H](C(=O)N[C@@H](CCC(N)=O)C(=O)N[C@@H](CC(C)C)C(=O)N[C@H](C(=O)N[C@@H](C)C(=O)N[C@@H](C)C(=O)N[C@@H](CC(C)C)C(=O)N[C@@H](CC(C)C)C(=O)N[C@@H](CCC(N)=O)C(=O)N[C@@H](CCC(N)=O)C(=O)O)[C@@H](C)CC)[C@@H](C)O [Peptide P1-18A] (H-NQGISEKQLDQLLTQLIAALLQQ-OH; N-terminus and C-terminus assumed),% remaining after 14 days incubation,[1],47%
CC[C@H](C)[C@H](NC(=O)CNC(=O)[C@H](CCC(N)=O)NC(=O)[C@@H](N)CC(N)=O)C(=O)N[C@@H](CO)C(=O)N[C@@H](CCC(=O)O)C(=O)N[C@@H](CCCCN)C(=O)N[C@@H](CCC(N)=O)C(=O)N[C@@H](CC(C)C)C(=O)N[C@@H](CC(=O)O)C(=O)N[C@@H](CCC(N)=O)C(=O)N[C@@H](CC(C)C)C(=O)N[C@@H](CC(C)C)C(=O)N[C@H](C(=O)N[C@@H](CCC(N)=O)C(=O)N[C@@H](CC(C)C)C(=O)N[C@H](C(=O)N[C@H](C(=O)N[C@@H](C)C(=O)N[C@@H](CC(C)C)C(=O)N[C@@H](CC(C)C)C(=O)N[C@@H](CCC(N)=O)C(=O)N[C@@H](CCC(N)=O)C(=O)O)[C@@H](C)O)[C@@H](C)CC)[C@@H](C)O [Peptide P1-18T] (H-NQGISEKQLDQLLTQLITALLQQ-OH; N-terminus and C-terminus assumed),% remaining after 14 days incubation,[1],71%
CC[C@H](C)[C@H](NC(=O)CNC(=O)[C@H](CCC(N)=O)NC(=O)[C@@H](N)CO)C(=O)N[C@@H](CO)C(=O)N[C@@H](CCC(=O)O)C(=O)N[C@@H](CCCCN)C(=O)N[C@@H](CCC(N)=O)C(=O)N[C@@H](CC(C)C)C(=O)N[C@@H](CC(=O)O)C(=O)N[C@@H](CCC(N)=O)C(=O)N[C@@H](CC(C)C)C(=O)N[C@@H](CC(C)C)C(=O)N[C@@H](CO)C(=O)N[C@@H](CCC(N)=O)C(=O)N[C@@H](CC(C)C)C(=O)N[C@H](C(=O)N[C@@H](CCC(N)=O)C(=O)N[C@@H](C)C(=O)N[C@@H](CC(C)C)C(=O)N[C@@H](CC(C)C)C(=O)N[C@@H](CCC(N)=O)C(=O)N1CCC[C@H]1C(=O)O)[C@@H](C)CC [Peptide P4-14S] (H-SQGISEKQLDQLLSQLIQALLQP-OH; N-terminus and C-terminus assumed),solubility,[2],completely soluble
same,precipitation during stability test,[1],remained in solution
same,solution stability (in words),[1],highly stable peptide
